From patent US5914325A, “Steroids with radical-attracting aromatic substituents, process for the production thereof and pharmaceutical compounds containing the said substances” (Jenapharm GmbH, priority 1993, dated 1999)
Blank lines part the entries; values can stand above or below the compound they belong to.

Experiments:
lipid peroxidation = assay: Inhibition of lipid peroxidation in vitro, thiobarbituric acid test (synaptosomal membrane fraction, Fenton's reagent); details: read-out: Lipid peroxidation inhibition [IC50], iron(II) chloride/hydrogen peroxide, 30 min at 37° C.
LDL oxidation = assay: Inhibition of LDL oxidation in vitro, method of Esterbauer et al (1988), CuSO4, 234 nm; assay type: biochemical; details: 1 μM, LDL isolated from human whole blood, room temperature, at least 8 h
Experimental: The measurement of in vitro inhibition of LDL oxidation was performed in accordance with Esterbauer et al (1988): Effect of peroxidative conditions on human plasma low density lipoproteins. In: Eicosanoids, lipid peroxidation and cancer (ed. Nigam et al), pages 203-214, Springer-Verlag,Berlin, Heidelberg, New York.
The values listed in Table 2 for inhibition of LDL oxidation represent examples for cardiovascular activities.
Testing of the substances for inhibitory action with regard to LDL oxidation, by the method of Esterbauer et al (1988), was carried out as follows:
The reaction mixture is incubated at room temperature over a period of at least 8 h and followed spectral photometrically (the absorption maximum of the oxidized LDL is at 234 nm). In accordance with the extinction changes, recorded at the measurement wavelength of 234 nm, in the presence or absence of test substances or in comparison of the native and the oxidized LDL, definitive statements on the influence on the oxidized LDL by the action of the test substance.
Dosage-action analysis of the test substances.

Compound: COc1ccc2c(c1)CC[C@@H]1[C@@H]2CC[C@@]2(C)[C@H]1CC[C@@]2(O)Cc1cc(C)c(O)c(C)c1
IC50 (lipid peroxidation): 2.34 µM

Compound: Cc1cc(C2=C[C@@H]3[C@H](CC[C@]4(C)[C@@H](O)CC[C@@H]34)c3ccc(O)cc32)cc(C)c1O [6-2',6'-Dimethyl-4'-hydroxyphenylestra-1,3,5(10),6-tetraene-3,17β-diol]
LDL oxidation inhibition (prolongation of lag phase in min) (LDL oxidation): 180 min
IC50 (lipid peroxidation): 0.95 µM

Compound: CN(C)c1ccc(C2=C[C@@H]3[C@H](CC[C@]4(C)[C@@H](O)CC[C@@H]34)c3ccc(O)cc32)cc1 [6-4'-N,N-Dimethylaminophenylestra-1,3,5(10),6-tetraene-3,17β-diol]
IC50 (lipid peroxidation): 2.75 µM

Compound: C[C@]12CC[C@H]3[C@@H](C[C@@H](c4ccc(O)cc4)C4=CC(=O)CC[C@@]43C)[C@@H]1CC[C@@H]2O [6β-4'-Hydroxyphenyl-17β-hydroxyandrost-4-ene-3-one]
IC50 (lipid peroxidation): 60 µM

Compound: CN(C)c1ccc(C2=CC[C@H]3[C@@H]4CCc5cc(O)ccc5[C@H]4CC[C@]23C)cc1 [17-4'-N,N-Dimethylaminophenylestra-1,3,5(10),16-tetraene-3-ol]
IC50 (lipid peroxidation): 4.5 µM

IC50 (lipid peroxidation): 4.97 µM
Compound: COc1ccc2c(c1)CCC1C2CCC2(C)C1CCC2(O)C[Se]c1c(C(C)(C)C)cc(O)cc1C(C)(C)C (stereo not drawn) [17α2',6'-Di-tert.-butyl-4'-hydroxyphenylselenomethyl-3-methoxyestra-1,3,5(10)-triene-17-ol]

IC50 (lipid peroxidation): 12.6 µM
Compound: COc1ccc2c(c1)CCC1C2CCC2(C)C1CCC2(O)Cc1c(C(C)(C)C)cc(O)cc1C(C)(C)C (stereo not drawn) [17α-2',6'-Di-tert.-butyl-4'-hydroxyphenylmethyl-3-methoxyestra-1,3,5(10)-triene-17-ol]

Compound: Cc1cc(O)cc(C)c1CC1(O)CCC2C3CCC4=CC(=O)CCC4C3CCC21C (stereo not drawn) [17α-2',6'-Dimethyl-4'-hydroxyphenylmethyl-17-hydroxyestr-4-ene-3-one]
IC50 (lipid peroxidation): 1.92 µM

IC50 (lipid peroxidation): 1.97 µM
Compound: COc1ccc2c(c1)CCC1C2CCC2(C)C1CCC2(O)C[Se]c1c(C)cc(O)cc1C (stereo not drawn) [17α-2',6'-Dimethyl-4'-hydroxyphenylselenomethyl-3-methoxyestra-1,3,5(10)-triene-17-ol]

Compound: C[C@]12CC[C@H]3[C@@H](CCC4=CC(=O)CC[C@@H]43)[C@@H]1CC[C@@]2(O)COc1ccc(O)cc1 [17α-4'-Hydroxyphenoxymethyl-17-hydroxyestr-4-ene-3-one]
IC50 (lipid peroxidation): 10.1 µM

Compound: COC1(OC)CCC2=C(CC[C@@H]3[C@@H]2CC[C@@]2(C)[C@H]3CC[C@@]2(O)CSc2ccc(O)cc2)C1 [17α-4'-Hydroxyphenylmercaptomethyl-3,3-dimethoxyestr-5(10)-ene-17-ol]
IC50 (lipid peroxidation): 1.46 µM

Compound: COc1ccc2c(c1)CC[C@@H]1[C@@H]2CC[C@@]2(C)[C@H]1CC[C@@]2(O)CSc1ccc(O)cc1 [17α-4'-Hydroxyphenylmercaptomethyl-3-methoxyestra-1,3,5(10)-triene-17-ol]
IC50 (lipid peroxidation): 4.32 µM

Compound: CC1CC(=O)CC2CCC3C(CCC4(C)C3CCC4(O)CSc3ccc(O)cc3)C12C (stereo not drawn) [17α-4'-Hydroxyphenylmercaptomethyl-17-hydroxy-1α-methyl-5α-androstan-3-one]
IC50 (lipid peroxidation): 3.82 µM

Compound: C[C@]12CCC(=O)C[C@@H]1CC[C@@H]1[C@@H]2CC[C@@]2(C)[C@H]1CC[C@@]2(O)CSc1ccc(O)cc1 [17α-4'-Hydroxyphenylmercaptomethyl-17-hydroxy-5α-androstan-3-one]
IC50 (lipid peroxidation): 4.75 µM

Compound: C[C@]12CCC(=O)C=C1CC[C@@H]1[C@@H]2CC[C@@]2(C)[C@H]1CC[C@@]2(O)CSc1ccc(O)cc1 [17α-4'-Hydroxyphenylmercaptomethyl-17-hydroxyandrost-4-ene-3-one]
IC50 (lipid peroxidation): 10.9 µM

Compound: C[C@]12CC[C@H]3[C@@H](CCC4=CC(=O)CC[C@@H]43)[C@@H]1CC[C@@]2(O)CSc1ccc(O)cc1 [17α-4'-Hydroxyphenylmercaptomethyl-17-hydroxyestr-4-ene-3-one]
IC50 (lipid peroxidation): 8.6 µM

Compound: C[C@]12CC=C3c4ccc(O)cc4CC[C@H]3[C@@H]1CC[C@@]2(O)CSc1ccc(O)cc1 [17α-4'-Hydroxyphenylmercaptomethylestra-1,3,5(10),9(11)-tetraene-3,17-diol]
LDL oxidation inhibition (prolongation of lag phase in min) (LDL oxidation): 270 min
IC50 (lipid peroxidation): 0.44 µM

Compound: C[C@]12CC[C@@H]3c4ccc(O)cc4CC[C@H]3[C@@H]1CC[C@@]2(O)CSc1ccc(O)cc1 [17α-4'-Hydroxyphenylmercaptomethylestra-1,3,5(10)-triene-3,17-diol]
LDL oxidation inhibition (prolongation of lag phase in min) (LDL oxidation): 120 min
IC50 (lipid peroxidation): 2.2 µM

Compound: COc1ccc2c(c1)CC[C@@H]1[C@@H]2CC[C@@]2(C)[C@H]1CC[C@@]2(O)Cc1ccc(O)cc1 [17α-4'-Hydroxyphenylmethyl-3-methoxyestra-1,3,5(10)-triene-17-ol]
IC50 (lipid peroxidation): 2.64 µM

Compound: C[C@]12CC[C@H]3[C@@H](CCC4=CC(=O)CC[C@@H]43)[C@@H]1CC[C@@]2(O)Cc1ccc(O)cc1 [17α-4'-Hydroxyphenylmethyl-17-hydroxyestr-4-ene-3-one]
IC50 (lipid peroxidation): 50 µM

Compound: C[C@]12CC=C3c4ccc(O)cc4CC[C@H]3[C@@H]1CC[C@@]2(O)Cc1ccc(O)cc1 [17α-4'-Hydroxyphenylmethylestra-1,3,5(10),9(11)-tetraene-3,17-diol]
LDL oxidation inhibition (prolongation of lag phase in min) (LDL oxidation): 230 min
IC50 (lipid peroxidation): 0.32 µM

Compound: C[C@]12CC[C@@H]3c4ccc(O)cc4CC[C@H]3[C@@H]1CC[C@@]2(O)Cc1ccc(O)cc1 [17α-4'-Hydroxyphenylmethylestra-1,3,5(10)-triene-3,17-diol]
LDL oxidation inhibition (prolongation of lag phase in min) (LDL oxidation): 125 min
IC50 (lipid peroxidation): 4.03 µM

Compound: CN(C)c1ccc([C@]2(O)CC[C@H]3[C@@H]4CCc5cc(O)ccc5[C@H]4CC[C@@]32C)cc1 [17α-4'-N,N-Dimethylaminophenylestra-1,3,5(10)-triene-3,17-diol]
LDL oxidation inhibition (prolongation of lag phase in min) (LDL oxidation): 170 min
IC50 (lipid peroxidation): 0.95 µM

Compound: COc1ccc2c(c1)CC[C@@H]1[C@@H]2CC[C@@]2(C)[C@H]1CC[C@@]2(O)Cc1ccc(N(C)C)cc1 [17α-4'-N,N-Dimethylaminophenylmethyl-3-methoxyestra-1,3,5(10)-triene-17-ol]
LDL oxidation inhibition (prolongation of lag phase in min) (LDL oxidation): 195 min
IC50 (lipid peroxidation): 1.64 µM

Compound: CN(C)c1ccc(C[C@]2(O)CC[C@H]3[C@@H]4CCC5=CC(=O)CC[C@@H]5[C@H]4CC[C@@]32C)cc1 [17α-4'-N,N-Dimethylaminophenylmethyl-17-hydroxyestr-4-ene-3-one]
IC50 (lipid peroxidation): > 10 µM

Compound: CN(C)c1ccc(C[C@]2(O)CC[C@H]3[C@@H]4CCc5cc(O)ccc5C4=CC[C@@]32C)cc1 [17α-4'-N,N-Dimethylaminophenylmethylestra-1,3,5(10),9(11)-tetraene-3,17-diol]
IC50 (lipid peroxidation): 2.1 µM

Compound: CN(C)c1ccc(C[C@]2(O)CC[C@H]3[C@@H]4CCc5cc(O)ccc5[C@H]4CC[C@@]32C)cc1 [17α-4'-N,N-Dimethylaminophenylmethylestra-1,3,5(10)-triene-3,17-diol]
IC50 (lipid peroxidation): 3.53 µM

Compound: COc1ccc2c(c1)CC[C@@H]1[C@@H]2CC[C@@]2(C)[C@H]1CC[C@@]2(O)C[Se]c1ccc(N(C)C)cc1 [17α-4'-N,N-Dimethylaminophenylselenomethyl-3-methoxyestra-1,3,5(10)-triene-17-ol]
IC50 (lipid peroxidation): 1.33 µM

Compound: COC1(OC)CCC2=C(CC[C@@H]3[C@@H]2CC[C@@]2(C)[C@H]3CC[C@@]2(O)Cc2ccc(N(C)C)cc2)C1 [17α-4'-N,N-Dimethylphenylmethyl-3,3-dimethoxyestr-5(10)-ene-17-ol]
IC50 (lipid peroxidation): 5.5 µM

Compound: C[C@]12CC[C@@H]3c4ccc(O)cc4CC[C@H]3[C@@H]1CC[C@@H]2O [17β-Estradiol, reference compound]
LDL oxidation inhibition (prolongation of lag phase in min) (LDL oxidation): 40 min
IC50 (lipid peroxidation): 12.4 µM

Compound: C[C@]12CC[C@@H]3c4ccc(O)cc4CC[C@H]3[C@@H]1C[C@@H](O)[C@@H]2O [Estriol, reference compound]
LDL oxidation inhibition (prolongation of lag phase in min) (LDL oxidation): 20 min
IC50 (lipid peroxidation): 22.5 µM

Compound: Cc1c(C)c2c(c(C)c1O)CCC(C)(CN1CCN(c3cc(N4CCCC4)nc(N4CCCC4)n3)CC1)O2 (stereo not drawn) [Example U-78517F, reference compound]
LDL oxidation inhibition (prolongation of lag phase in min) (LDL oxidation): 20 min

Compound: Vitamin E [reference compound]
IC50 (lipid peroxidation): 132 µM
